Results reported in ChEMBL document CHEMBL5620354, “Development of isoselenazolium chlorides as selective pyruvate kinase isoform M2 inhibitors” (Eur J Med Chem, 2023).

Key:
[1] = test system: Jurkat; test: Cytotoxicity against human Jurkat cells assessed as inhibition of cell growth incubated for 48 hrs by MTT assay; assay type: functional, cell-based
[2] = target: T1, Pyruvate kinase PKM (Homo sapiens, UniProt P14618); test: Inhibition of N-terminal his8-tagged PKM2 (unknown origin)
Target sequence in this assay (P14618 whole entry): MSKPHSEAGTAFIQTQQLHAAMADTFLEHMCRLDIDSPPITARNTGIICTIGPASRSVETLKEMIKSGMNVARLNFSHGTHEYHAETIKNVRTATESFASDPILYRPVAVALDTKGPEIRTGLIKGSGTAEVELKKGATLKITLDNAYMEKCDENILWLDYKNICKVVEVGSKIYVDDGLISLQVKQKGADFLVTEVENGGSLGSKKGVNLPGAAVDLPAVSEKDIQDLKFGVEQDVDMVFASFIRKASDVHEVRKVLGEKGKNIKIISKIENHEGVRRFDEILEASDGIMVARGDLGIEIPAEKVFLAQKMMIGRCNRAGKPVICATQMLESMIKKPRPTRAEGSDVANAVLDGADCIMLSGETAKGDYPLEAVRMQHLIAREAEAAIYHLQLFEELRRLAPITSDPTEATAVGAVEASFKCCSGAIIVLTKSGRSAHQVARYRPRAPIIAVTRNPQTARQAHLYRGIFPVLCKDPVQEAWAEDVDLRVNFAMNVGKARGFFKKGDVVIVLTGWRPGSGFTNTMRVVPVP

[3] = organism: Oryctolagus cuniculus; test: Inhibition of rabbit LDH at 1 uM relative to control
[4] = test system: A549; test: cells; settings: Homo sapiens, A549, 48 h
Description: Cytotoxicity against human A549 cells assessed as inhibition of cell growth incubated for 48 hrs by MTT assay

[5] = target: Pyruvate kinase PKLR (Homo sapiens) (UniProt P30613); test: Inhibition of PKR (unknown origin) at 1 uM relative to control
[6] = target: T1, Pyruvate kinase PKM; test: Inhibition of N-terminal his8-tagged PKM2 (unknown origin) in presence of FBP by Michaelis-menten analysis
Target sequence in this assay (P14618 whole entry): as above

[7] = test system: MCF7; test: cells; settings: Homo sapiens, MCF7, 48 h
Description: Cytotoxicity against human MCF7 cells assessed as inhibition of cell growth incubated for 48 hrs by MTT assay

[8] = test system: MDA-MB-231; test: Cytotoxicity against human MDA-MB-231 cells assessed as inhibition of cell growth incubated for 48 hrs by MTT assay; assay type: functional, cell-based; settings: MDA-MB-231, 48 h
[9] = test system: 4T1; test: Cytotoxicity against mouse 4T1 cells assessed as inhibition of cell growth incubated for 48 hrs by MTT assay; assay type: functional, cell-based; settings: 4T1, 48 h
[10] = test system: HCC1937; test: Cytotoxicity against human HCC1937 cells assessed as inhibition of cell growth incubated for 48 hrs by MTT assay; assay type: functional, cell-based; settings: HCC1937, 48 h
[11] = target: T1, Pyruvate kinase PKM; test: Inhibition of PKM1 (unknown origin); design: concentration or dose not given beside the values; settings: concentration not given here
Target sequence in this assay (P14618 2-531 limits assumed): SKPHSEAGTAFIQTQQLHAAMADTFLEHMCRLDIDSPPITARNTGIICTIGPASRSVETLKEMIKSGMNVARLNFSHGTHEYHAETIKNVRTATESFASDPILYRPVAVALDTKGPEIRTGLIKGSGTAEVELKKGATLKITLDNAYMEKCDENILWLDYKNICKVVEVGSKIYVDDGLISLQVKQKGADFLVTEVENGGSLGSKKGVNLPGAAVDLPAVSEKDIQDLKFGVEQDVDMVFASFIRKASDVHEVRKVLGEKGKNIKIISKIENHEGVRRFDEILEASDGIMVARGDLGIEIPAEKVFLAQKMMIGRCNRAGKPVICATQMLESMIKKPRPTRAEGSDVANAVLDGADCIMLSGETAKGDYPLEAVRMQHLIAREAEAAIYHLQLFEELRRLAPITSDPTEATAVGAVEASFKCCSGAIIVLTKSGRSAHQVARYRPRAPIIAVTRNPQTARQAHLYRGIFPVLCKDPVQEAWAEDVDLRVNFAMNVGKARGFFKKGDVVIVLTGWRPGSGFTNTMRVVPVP

[12] = Cytotoxicity against rat H9c2 cells assessed as inhibition of cell growth incubated for 48 hrs by MTT assay; assay type: toxicity, cell-based
[13] = target: T1, Pyruvate kinase PKM; test: Inhibition of PKM2 (unknown origin) assessed as decrease in dimer population by analytical size-exclusion chromatography; settings: dose 5.0 µM
Target sequence in this assay (P14618 2-531 limits assumed): as above

[14] = target: T1, Pyruvate kinase PKM; test: Inhibition of PKM2 (unknown origin) assessed as increase in tetramer ratio by analytical size-exclusion chromatography; settings: dose 5.0 µM
Target sequence in this assay (P14618 2-531 limits assumed): as above

[15] = target: T1, Pyruvate kinase PKM; test: Inhibition of PKM2 (unknown origin) assessed as decrease in dimer population at 5 uM in presence of FBP by analytical size-exclusion chromatography relative to control
Target sequence in this assay (P14618 2-531 limits assumed): as above

[16] = target: T1, Pyruvate kinase PKM; test: Inhibition of PKM2 (unknown origin) assessed as decrease in monomer population at 5 uM by analytical size-exclusion chromatography relative to control
Target sequence in this assay (P14618 2-531 limits assumed): as above

[17] = target: T1, Pyruvate kinase PKM; test: Inhibition of PKM2 (unknown origin) assessed as decrease in dimer population at 5 uM by analytical size-exclusion chromatography relative to control
Target sequence in this assay (P14618 2-531 limits assumed): as above

[18] = target: T1, Pyruvate kinase PKM; test: Binding affinity to PKM2 (unknown origin) assessed as protein destabilization by differential scanning fluorimetry; settings: dose 2.5-10 µM

Sequence of Pyruvate kinase PKLR (Homo sapiens) (P30613 whole entry, looked up): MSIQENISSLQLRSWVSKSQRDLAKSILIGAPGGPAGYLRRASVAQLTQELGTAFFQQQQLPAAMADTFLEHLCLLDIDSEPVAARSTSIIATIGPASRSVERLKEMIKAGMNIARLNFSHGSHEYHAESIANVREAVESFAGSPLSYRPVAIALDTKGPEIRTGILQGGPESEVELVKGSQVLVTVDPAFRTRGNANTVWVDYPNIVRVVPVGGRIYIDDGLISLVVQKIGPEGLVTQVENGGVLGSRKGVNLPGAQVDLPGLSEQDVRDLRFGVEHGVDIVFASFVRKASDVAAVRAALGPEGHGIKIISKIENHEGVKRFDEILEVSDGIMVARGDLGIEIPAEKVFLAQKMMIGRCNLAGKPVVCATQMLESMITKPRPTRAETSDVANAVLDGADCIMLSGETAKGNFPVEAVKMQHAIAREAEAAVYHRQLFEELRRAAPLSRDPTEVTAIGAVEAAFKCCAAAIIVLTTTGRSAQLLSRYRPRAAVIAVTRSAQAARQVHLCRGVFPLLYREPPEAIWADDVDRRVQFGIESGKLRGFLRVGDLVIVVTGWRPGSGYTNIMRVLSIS

COC(=O)c1cc[n+]2[se]c(C3([O-])CCC3)c(Br)c2c1
IC50 [1]: 3.24 µM
IC50 [2]: 0.854 µM
inhibition [3]: 7%
IC50 [4]: 9.12 µM
inhibition [5]: 20%
IC50 [6]: 0.603 µM
IC50 [7]: 2.8 µM
IC50 [8]: 6.51 µM
IC50 ([9]; read-out: IC50): > 10 µM
IC50 [10]: 3.03 µM
inhibition [11]: 26%
IC50 at 48 h [12]: 2.97 µM

OC1(c2[se][n+]3ccccc3c2Br)CCCCC1
IC50 [2]: 2.92 µM
IC50 [6]: 2.73 µM

[2H]C([2H])([2H])OC(=O)c1cc[n+]2[se]c(C3(O)CCCCC3)c(Br)c2c1.[Cl-]
IC50 [1]: 0.49 µM
IC50 [2]: 0.478 µM
IC50 [4]: 1.2 µM
IC50 [6]: 0.61 µM
IC50 [7]: 0.38 µM
IC50 [8]: 0.4 µM
IC50 ([9]; read-out: IC50): 1.11 µM
IC50 [10]: 0.54 µM
IC50 at 48 h [12]: 0.64 µM

CCCCCCCCCCCCCC(C)(O)c1[se][n+]2ccc(C(=O)OC)cc2c1Br (stereo not drawn)
IC50 [1]: 3.38 µM
IC50 [2]: > 1 µM
IC50 [7]: 3.79 µM
IC50 [10]: 2.45 µM
IC50 at 48 h [12]: 3.63 µM

COC(=O)c1cc[n+]2[se]c(C3(O)CCC(F)(F)CC3)c(Br)c2c1
IC50 [1]: 0.48 µM
IC50 [2]: 0.637 µM
inhibition [3]: 2%
IC50 [4]: 1.16 µM
inhibition [5]: 29%
IC50 [6]: 0.572 µM
IC50 [7]: 0.28 µM
IC50 [8]: 0.48 µM
IC50 ([9]; read-out: IC50): 1.48 µM
IC50 [10]: 0.24 µM
inhibition [11]: 11%
IC50 at 48 h [12]: 1.06 µM

COc1cccc2c1C(=O)c1c(O)c3c(c(O)c1C2=O)C[C@@](O)(C(=O)CO)C[C@@H]3O[C@H]1C[C@H](N)[C@H](O)[C@H](C)O1 [DOXORUBICIN]
IC50 [1]: 0.32 µM
IC50 [4]: 0.23 µM
IC50 [7]: 0.47 µM
IC50 [8]: 0.41 µM
IC50 [9]: 0.065 µM
IC50 [10]: 1.08 µM
IC50 at 48 h [12]: 3.9 µM

NC(=O)c1cc[n+]2[se]c(C3(O)CCCCC3)c(Br)c2c1
inhibition [13]: Dose-Dependent Effect
inhibition [14]: Dose-Dependent Effect
inhibition [15]: 43.2%
IC50 [1]: 1 µM
inhibition [16]: 38%
IC50 [2]: 0.42 µM
inhibition [3]: 6%
IC50 [4]: 2.81 µM
inhibition [5]: 37%
IC50 [6]: 0.572 µM
inhibition [17]: 69.1%
IC50 [7]: 2.22 µM
IC50 [8]: 1.15 µM
IC50 ([9]; read-out: IC50): 1.41 µM
IC50 [10]: 0.6 µM
inhibition [11]: 15%
Activity [18]: Dose-Dependent Effect
IC50 at 48 h [12]: 1.41 µM

NC(=O)c1cccc2c(Br)c(C3(O)CCCCC3)[se][n+]12
IC50 [1]: 1.88 µM
IC50 [2]: > 1 µM
IC50 [7]: 3.85 µM
IC50 [10]: 1.33 µM
IC50 at 48 h [12]: 2.63 µM

NC(=O)c1cc[n+]2[se]c(C3(O)C4CC5CC(C4)CC3C5)c(Br)c2c1 (stereo not drawn)
IC50 [1]: 0.91 µM
IC50 [2]: 1.01 µM
inhibition [3]: 6%
IC50 [4]: 2.21 µM
inhibition [5]: 11%
IC50 [7]: 0.61 µM
IC50 [8]: 0.65 µM
IC50 ([9]; read-out: IC50): 0.56 µM
IC50 [10]: 0.74 µM
inhibition [11]: 21%
IC50 at 48 h [12]: 0.91 µM

NC(=O)c1ccc2c(Br)c(C3(O)CCCCC3)[se][n+]2c1
IC50 [1]: 0.6 µM
IC50 [2]: > 1 µM
IC50 [7]: 2.3 µM
IC50 [10]: 1.5 µM
IC50 at 48 h [12]: 1.27 µM

COC(=O)c1cc[n+]2[se]c(C3([O-])CCCC3)c(Br)c2c1
IC50 [1]: 0.48 µM
IC50 [2]: 0.38 µM
inhibition [3]: 6%
IC50 [4]: 8.7 µM
inhibition [5]: 42%
IC50 [6]: 0.517 µM
IC50 [7]: 0.36 µM
IC50 [8]: 1.66 µM
IC50 ([9]; read-out: IC50): 2.04 µM
IC50 [10]: 0.41 µM
inhibition [11]: 20%
IC50 at 48 h [12]: 0.77 µM

CCCCCCCCCCCCCC(C)(O)c1[se][n+]2ccc(C(N)=O)cc2c1Br (stereo not drawn)
IC50 [1]: 2 µM
IC50 [2]: 0.901 µM
inhibition [3]: 9%
IC50 [4]: 3.72 µM
inhibition [5]: 29%
IC50 [7]: 1.01 µM
IC50 [8]: 2.42 µM
IC50 ([9]; read-out: IC50): 4.32 µM
IC50 [10]: 0.91 µM
inhibition [11]: 23%
IC50 at 48 h [12]: 1.91 µM

O=C(O)c1cc[n+]2[se]c(C3(O)CCCCC3)c(Br)c2c1
IC50 [1]: 6.61 µM
IC50 [2]: 1.06 µM
inhibition [3]: 9%
IC50 [4]: 7.03 µM
inhibition [5]: 5%
IC50 [7]: > 10 µM
IC50 [8]: 6.12 µM
IC50 ([9]; read-out: IC50): 6.81 µM
IC50 [10]: 5.82 µM
inhibition [11]: 4%
IC50 at 48 h [12]: 7.82 µM

O=c1cc(-c2ccc(O)cc2)oc2cc(O)cc(O)c12 [APIGENIN]
IC50 [2]: > 20 µM
IC50 [6]: > 20 µM

O=C(O)c1ccc2c(Br)c(C3(O)CCCCC3)[se][n+]2c1
IC50 [1]: 3.26 µM
IC50 [2]: > 1 µM
IC50 [7]: > 10 µM
IC50 [10]: 3.85 µM
IC50 at 48 h [12]: 3.55 µM

COC(=O)c1cc[n+]2[se]c(C3(O)C4CC5CC(C4)CC3C5)c(Br)c2c1 (stereo not drawn)
IC50 [1]: 6.18 µM
IC50 [2]: > 1 µM
IC50 [7]: 6.87 µM
IC50 [10]: 2.89 µM
IC50 at 48 h [12]: 4.76 µM

COC(=O)c1cc(C)[n+]2[se]c(C3(O)CCCCC3)c(Br)c2c1
IC50 [1]: 0.45 µM
IC50 [2]: 1.36 µM
inhibition [3]: 7%
IC50 [4]: 1.12 µM
inhibition [5]: 28%
IC50 [7]: 0.3 µM
IC50 [8]: 0.37 µM
IC50 ([9]; read-out: IC50): 0.96 µM
IC50 [10]: 0.34 µM
inhibition [11]: 10%
IC50 at 48 h [12]: 0.9 µM

COC(=O)c1ccc2c(Br)c(C3(O)CCCCC3)[se][n+]2c1
IC50 [1]: 0.25 µM
IC50 [2]: 0.545 µM
inhibition [3]: 10%
IC50 [4]: 1.31 µM
inhibition [5]: 39%
IC50 [6]: 0.303 µM
IC50 [7]: 0.87 µM
IC50 [8]: 0.43 µM
IC50 ([9]; read-out: IC50): 0.7 µM
IC50 [10]: 0.31 µM
inhibition [11]: 16%
IC50 at 48 h [12]: 0.89 µM

NC(=O)c1cc[n+]2[se]c(C3(O)CCC(F)(F)CC3)c(Br)c2c1
IC50 [1]: 1.43 µM
IC50 [2]: 0.362 µM
inhibition [3]: 13%
IC50 [4]: 3.17 µM
inhibition [5]: 40%
IC50 [6]: 0.542 µM
IC50 [7]: 1 µM
IC50 [8]: 1.36 µM
IC50 ([9]; read-out: IC50): 1.25 µM
IC50 [10]: 0.6 µM
inhibition [11]: 26%
IC50 at 48 h [12]: 1.41 µM

COC(=O)c1cc2c(Br)c(C3(O)CCCCC3)[se][n+]2cc1F
IC50 [1]: 1.16 µM
IC50 [2]: 0.897 µM
inhibition [3]: 7%
IC50 [4]: 2.93 µM
inhibition [5]: 15%
IC50 [7]: 1.08 µM
IC50 [8]: 1.38 µM
IC50 ([9]; read-out: IC50): 2.34 µM
IC50 [10]: 1.19 µM
inhibition [11]: 29%
IC50 at 48 h [12]: 1.68 µM
